Laboratory results reported in patent US12252459B2, “Hydrazone amide derivatives and use thereof in preparation of anti-osteoporosis drugs” (SHENZHEN CELL INSPIRE PHARMACEUTICAL DEVELOPMENT CO., LTD., priority 2019, dated 2025).

Assays:
[1] = system: RANKL-induced osteoclast differentiation of RAW264.7 cells; assay: Osteoclast differentiation inhibition experiment (RANKL-induced, TRAP staining); format: cell-based; settings: for IC50: RAW264.7 cells, 100 ng/ml RANKL, 5 days, TRAP staining, osteoclasts with 3 or more nuclei counted; for Therapeutic index SI (CC50/IC50): selective inhibition constant = CC50 (RAW264.7 cytotoxicity) / IC50 (osteoclast differentiation)
Procedure: Example 33: Osteoclast Differentiation Inhibition Experiment
(§1) RAW264.7 cells were cultured in vitro using DMEM high glucose medium containing 10% fetal bovine serum at 37° C. under 5% CO2 for routine maintenance culture and passage.
(§2) S2. Compound Intervention
The logarithmic growth phase cells were collected and formulated into a cell suspension at a concentration of 2×10^4 cells/mL, and the cell suspension were added to a 96-well cell culture plate. After culturing in a carbon dioxide incubator for 24 hours, the culture medium was replaced with a medium containing 100 ng/ml RANKL and the compound at different concentrations to continue culturing for 5 days, while changing the medium containing the same RANKL concentration and compound concentration every 2 days. The osteoclasts were stained with the TRAP staining method and measured on day 5. Three wells were set for each concentration, and a control group without the compound treatment was set for comparison.
The differentiated osteoclasts were stained with TRAP kit, and the number of osteoclasts fused by 3 or more nuclei was counted.
(§3) S4. Processing of Results
The inhibition rate of each compound on RANKL-induced osteoclast differentiation was calculated according to the following equation: […]
An osteoclast differentiation inhibition curve of each compound was plotted with the osteoclast differentiation inhibition rate as the ordinate and the logarithm of the compound concentration as the abscissa. According to the osteoclast differentiation inhibition rate by each compound, the half maximal inhibitory concentration IC50 was calculated, i.e., the concentration of the compound that is required for 50% osteoclast differentiation inhibition.
(§4) In addition, a selective inhibition constant of each compound was calculated according to the equation: selective inhibition constant (SI)=CC50/IC50, in order to evaluate the administration safety of each compound.
Based on the value of the selective index SI=CC50/IC50, the anti-osteoporotic differentiation effect of the compound was evaluated according to the following criteria.

[2] = Cytotoxicity assay (MTT) on RAW264.7 cells; format: cell-based; settings: mouse, RAW264.7 cell growth inhibition, MTT method
Procedure: Example 32: Cytotoxicity Assay of Compounds
as §1, §2
The logarithmic growth phase cells were collected and formulated into a cell suspension at a concentration of 1×10^5 cells/mL, and the cell suspension was added to a 96-well cell culture plate. After culturing in a carbon dioxide incubator for 24 hours, the culture medium was replaced with a medium containing the compound at different concentrations to continue culturing for 2 days, and the cytotoxicity was detected on day 3. The compound to be tested was prepared into solutions of different concentrations using DMSO. Three wells were set for each concentration, and a control group without the compound treatment was set for comparison. […]
as §3
The RAW264.7 cell growth inhibition rate by each compound was calculated according to the following equation: […]
A cell growth inhibition curve of each compound was plotted with the RAW264.7 cell growth inhibition rate as the ordinate and the logarithm of the compound concentration as the abscissa. According to the inhibition rate of each compound on the cells, the 50% cytotoxic concentration CC50 was calculated, i.e., the concentration of the compound that is required for 50% inhibition of cell growth.
as §4

| SMILES | IC50 ([1]; Mus musculus, RAW264.7, 120 h) | Therapeutic index SI (CC50/IC50) [1] | CC50 at 2 days [2] | IC50 [1] |
| --- | --- | --- | --- | --- |
| CC(=O)/C(=N\Nc1ccccc1C(=O)O)C(=O)NC1CCNCC1 [Compound 26] | 8.85 µM | 7 | 65.8 µM |  |
| CC(=O)/C(=N\Nc1ccccc1C(=O)O)C(=O)Nc1nc(C)cs1 [Compound 21] | 2.58 µM | 85 | 220 µM |  |
| CC(=O)/C(=N\Nc1ccccc1C(=O)O)C(=O)N1CCOCC1 [Compound 28] | 0.99 µM | 77 | 76.2 µM |  |
| CCOC(=O)c1sc(NC(=O)/C(=N/Nc2cc(F)ccc2C(=O)O)C(C)=O)nc1C [Compound 11] | 1.02 µM | 56 | 57.2 µM |  |
| CC(=O)/C(=N\Nc1ccccc1C(=O)O)C(=O)Nc1nccs1 [Compound 22] | 3.66 µM | 41 | 149 µM |  |
| CCOC(=O)c1sc(NC(=O)/C(=N/Nc2cc(C(=O)O)ccc2C(=O)O)C(C)=O)nc1C [Compound 19] | 10.2 µM | 20 | 202 µM |  |
| CC(=O)/C(=N\Nc1ccccc1C(=O)O)C(=O)Nc1ccc(C#N)cn1 [Compound 29] | 3.21 µM | 37 | 119 µM |  |
| CCOC(=O)c1sc(NC(=O)/C(=N/Nc2ccccc2O)C(C)=O)nc1C [Compound 5] | 2.45 µM | 21 | 52.6 µM |  |
| CCOC(=O)c1sc(NC(=O)/C(=N/Nc2ccc(Cl)cc2C(=O)O)C(C)=O)nc1C [Compound 15] | 1.56 µM | 22 | 33.9 µM |  |
| CC(=O)/C(=N\Nc1ccccc1C(=O)O)C(=O)Nc1ccccn1 [Compound 25] | 0.36 µM | 301 | 81.2 µM | 0.27 µM |
| CCOC(=O)c1sc(NC(=O)/C(=N/Nc2ccccc2C(=O)O)C(C)=O)nc1C [Compound 1] | 1.24 µM | 50 | 62.5 µM |  |
| CCOC(=O)c1sc(NC(=O)/C(=N/Nc2cc(C)ccc2C(=O)O)C(C)=O)nc1C [Compound 8] | 3.85 µM | 15 | 57.2 µM |  |
| CCOC(=O)c1sc(NC(=O)/C(=N/Nc2ccc(N)cc2C(=O)O)C(C)=O)nc1C [Compound 20] | 1.23 µM | 40 | 49.1 µM |  |
| CCOC(=O)c1sc(NC(=O)/C(=N/Nc2ccc([N+](=O)[O-])cc2C(=O)O)C(C)=O)nc1C [Compound 14] | 0.89 µM | 47 | 41.9 µM |  |
| CCOC(=O)c1sc(NC(=O)/C(=N/Nc2ccncc2C(=O)O)C(C)=O)nc1C [Compound 16] | 22.3 µM | 20 | 451 µM |  |
| CCOC(=O)c1sc(NC(=O)/C(=N/Nc2cccc(C(=O)O)c2)C(C)=O)nc1C [Compound 3] |  | 1625 | 81.2 µM | 0.05 µM |
| CCOC(=O)c1sc(NC(=O)/C(=N/Nc2ccc(F)cc2C(=O)O)C(C)=O)nc1C [Compound 10] | 0.4 µM | 308 | 123 µM |  |
| CCOC(=O)c1sc(NC(=O)/C(=N/Nc2ccccc2CO)C(C)=O)nc1C [Compound 6] | 12.1 µM | 6 | 77.9 µM |  |
| CCOC(=O)c1sc(NC(=O)/C(=N/Nc2ccc(C(=O)O)cc2)C(C)=O)nc1C [Compound 2] | 0.73 µM | 95 | 69.2 µM |  |
| CCOC(=O)c1sc(NC(=O)/C(=N/Nc2ccccc2C(=O)OC)C(C)=O)nc1C [Compound 4] | 1.26 µM | 65 | 82.1 µM |  |
| CCOC(=O)c1sc(NC(=O)/C(=N/Nc2c(C(=O)O)cccc2C(=O)O)C(C)=O)nc1C [Compound 18] | 0.46 µM | 271 | 125 µM |  |
| CC(=O)/C(=N\Nc1ccccc1C(=O)O)C(=O)N1CCc2ccccc2C1 [Compound 27] | 9.03 µM | 15 | 135 µM |  |
| CC(=O)/C(=N\Nc1ccccc1C(=O)O)C(=O)Nc1nc2ccccc2s1 [Compound 23] | 0.78 µM | 53 | 41.1 µM |  |
| CCOC(=O)c1sc(NC(=O)/C(=N/Nc2cc(C#N)ccc2C(=O)O)C(C)=O)nc1C [Compound 13] | 0.88 µM | 71 | 62.3 µM |  |
| CC(=O)/C(=N\Nc1ccccc1C(=O)O)C(=O)Nc1ccccc1 [Compound 24] | 11.1 µM | 7 | 75.2 µM |  |
| CC(=O)/C(=N\Nc1ccccc1C(=O)O)C(=O)Nc1cccc(O)n1 [Compound 30] | 15.4 µM | 13 | 198 µM |  |
| CCOC(=O)c1sc(NC(=O)/C(=N/Nc2c(C#N)cccc2C(=O)O)C(C)=O)nc1C [Compound 12] |  | 1701 | 391 µM | 0.23 µM |
| CCOC(=O)c1sc(NC(=O)/C(=N/Nc2c(C)cccc2C(=O)O)C(C)=O)nc1C [Compound 7] | 0.99 µM | 63 | 62.8 µM |  |
| CCOC(=O)c1sc(NC(=O)/C(=N/Nc2ccc(C)cc2C(=O)O)C(C)=O)nc1C [Compound 9] | 4.63 µM | 19 | 89 µM |  |
